Data taken from patent US20110152092A1, “Herbicidal compositions comprising flufenacet” (Bayer CropScience AG, priority 2009, published 2011).

What was measured:
LOLPE = assay: Greenhouse trial, PO application, post-emergence action against weeds (test method 2); assay type: in vivo, Lolium perenne; conditions: g of AS/ha: (A) 120, (B) 1200, (C) 120, mixture 120 + 1200 + 120
Experimental: (§1) In the standard design of the test, seeds of various broad-leaved weed and weed grass biotypes (origins) were sown in a 8-13 cm diameter pot filled with natural soil of a standard field soil (loamy silt; non-sterile) and covered with a covering soil layer of about 1 cm. The pots were then cultivated in a greenhouse (12-16 h of light, temperature day 20-22° C., night 15-18° C.) until the time of application. The pots were treated on a laboratory track sprayer with spray liquors comprising the compositions according to the invention, mixtures of the prior art or components used individually. Application of the active compounds or active compound combinations formulated as WG, WP, EC or otherwise was carried out at the appropriate growth stages of the plants. The application rate for the spray application was 100-600 l of water/ha. After the treatment, the plants were returned to the greenhouses.
About 3 weeks after the application, the soil action or/and foliar action was assessed visually according to a scale of 0-100% in comparison to an untreated comparative group: 0%=no noticeable effect compared to the untreated comparative group; 100%=full effect compared to the untreated comparative group. […]

MATCH [1] = assay: Greenhouse trial, PE application with different irrigation variations (test method 6); assay type: in vivo, Matricaria chamomilla; conditions: irrigation from above, g of AS/ha: (A) 120, (B) 1200, (C) 90, mixture 120 + 1200 + 90
Experimental: as §1
(§2) About 3 weeks after the application, the soil action or/and foliar action was assessed visually according to a scale of 0-100% in comparison to an untreated comparative group: 0%=no noticeable effect compared to the untreated comparative group; 100%=full effect compared to the untreated comparative group.
(§3) (notes: the term “seeds” also includes vegetative propagation forms such as, for example, rhizome pieces; abbreviations used: h light=hours of illumination, g of AS/ha=gram of active substance per hectare, l/ha=liter per hectare, S=sensitive, R=resistant) • 1. Pre-emergence action against weeds: seeds of various broad-leaved weed and weed grass biotypes (origins) were sown in a 8-13 cm diameter pot filled with natural soil of a standard field soil (loamy silt; non-sterile) and covered with a covering soil layer of about 1 cm. The pots were then cultivated in a greenhouse (12-16 h of light, temperature day 20-22° C., night 15-18° C.) until the time of application. […]

STEME = assay: Greenhouse trial, activity with different soil types; assay type: in vivo, Stellaria media; conditions: g of AS/ha: (A) 120, (B) 1200, (C) 90, mixture 120 + 1200 + 90
Experimental: as §1, §2
(§4) (notes: the term “seeds” also includes vegetative propagation forms such as, for example, rhizome pieces; abbreviations used: h light=hours of illumination, g of AS/ha=gram of active substance per hectare, l/ha=liter per hectare, S=sensitive, R=resistant) • 1. Pre-emergence action against weeds: seeds of various broad-leaved weed and weed grass biotypes (origins) were sown in a 8-13 cm diameter pot filled with natural soil of a standard field soil (loamy silt; non-sterile) and covered with a covering soil layer of about 1 cm. The pots were then cultivated in a greenhouse (12-16 h of light, temperature day 20-22° C., night 15-18° C.) until the time of application. The pots were treated at the BBCH stage 00-10 of the seeds/plants on a laboratory track sprayer with spray liquors comprising the compositions according to the invention, mixtures or components used individually, as WG, WP, EC or other formulations. The application rate for the spray application was 100-600 l of water/ha. After the treatment, the plants were returned to the greenhouses and, when required, treated with fertilizer and watered. • 2. Post-emergence action against weeds: seeds of various broad-leaved weed and weed grass biotypes (origins) were sown in a 8-13 cm diameter pot filled with natural soil of a standard field soil (loamy silt; non-sterile) and covered with a covering soil layer of about 1 cm. The pots were then cultivated in a greenhouse (12-16 h of light, temperature day 20-22° C., night 15-18° C.) until the time of application. The pots were treated at various BBCH stages between 11-25 of the seeds/plants, i.e. generally between two to three weeks after the start of the cultivation, on a laboratory track sprayer with spray liquors comprising the compositions according to the invention, mixtures or components used individually, as WG, WP, EC or other formulations. The application rate for the spray application was 100-600 l of water/ha. After the treatment, the plants were returned to the greenhouses and, when required, treated with fertilizer and watered. • 3. Selective pre-emergence action: seeds of various crop species (origins) were sown in a 8-13 cm diameter pot filled with natural soil of a standard field soil (loamy silt; non-sterile) and covered with a covering soil layer of about 1 cm. The pots were then cultivated in a greenhouse (12-16 h of light, temperature day 20-22° C., night 15-18° C.) until the time of application. The pots were treated at the BBCH stage 00-10 of the seeds/plants on a laboratory track sprayer with spray liquors comprising the compositions according to the invention, mixtures or components used individually, as WG, WP, EC or other formulations. The application rate for the spray application was 100-600 l of water/ha. […]

MATCH [2] = assay: as above; assay type: in vivo, Matricaria chamomilla; conditions: g of AS/ha: (A) 120, (B) 1200, (C) 90, mixture 120 + 1200 + 90
Experimental: as §1, §2
(notes: the term “seeds” also includes vegetative propagation forms such as, for example, rhizome pieces; abbreviations used: h light=hours of illumination, g of AS/ha=gram of active substance per hectare, l/ha=liter per hectare, S=sensitive, R=resistant) • 1. Pre-emergence action against weeds: seeds of various broad-leaved weed and weed grass biotypes (origins) were sown in a 8-13 cm diameter pot filled with natural soil of a standard field soil (loamy silt; non-sterile) and covered with a covering soil layer of about 1 cm. The pots were then cultivated in a greenhouse (12-16 h of light, temperature day 20-22° C., night 15-18° C.) until the time of application. The pots were treated at the BBCH stage 00-10 of the seeds/plants on a laboratory track sprayer with spray liquors comprising the compositions according to the invention, mixtures or components used individually, as WG, WP, EC or other formulations. The application rate for the spray application was 100-600 l of water/ha. After the treatment, the plants were returned to the greenhouses and, when required, treated with fertilizer and watered. • 2. Post-emergence action against weeds: seeds of various broad-leaved weed and weed grass biotypes (origins) were sown in a 8-13 cm diameter pot filled with natural soil of a standard field soil (loamy silt; non-sterile) and covered with a covering soil layer of about 1 cm. The pots were then cultivated in a greenhouse (12-16 h of light, temperature day 20-22° C., night 15-18° C.) until the time of application. The pots were treated at various BBCH stages between 11-25 of the seeds/plants, i.e. generally between two to three weeks after the start of the cultivation, on a laboratory track sprayer with spray liquors comprising the compositions according to the invention, mixtures or components used individually, as WG, WP, EC or other formulations. The application rate for the spray application was 100-600 l of water/ha. After the treatment, the plants were returned to the greenhouses and, when required, treated with fertilizer and watered. • 3. […]

ALOMY = assay: Greenhouse trial, PE application on sensitive and resistant biotypes (test method 8); assay type: in vivo, Alopecurus myosuroides; conditions: g of AS/ha: (A) 90, (B) 1200, (C) 90, mixture 90 + 1200 + 90, iodosulfuron 10
Experimental: as §1, §2, §4

APESV = assay: Greenhouse trial, PE application at different sowing depths (test method 9); assay type: in vivo, Apera Spica-venti; conditions: sowing depth 5 mm, g of AS/ha: (A) 120, (B) 1200, (C) 90, mixture 90 + 1200 + 90
Experimental: as §1, §2, §3

CC(C)N(C(=O)COc1nnc(C(F)(F)F)s1)c1ccc(F)cc1 [(A) flufenacet, N-(4-fluorophenyl)-N-(1-methylethyl)-2-[[5-(trifluoromethyl)-1,3,4-thiadiazol-2-yl]oxy]acetamide]
activity LOLPE (visual, scale 0-100%) (LOLPE): 65%
activity MATCH (visual, scale 0-100%) (MATCH [1]): 97%
activity STEME IU soil (visual, scale 0-100%) (STEME; IU soil): 89%
Difference of the soil types, STEME (STEME; IU/EC73 soil versus IU soil): −89%
Difference of the soil types, MATCH (MATCH [2]; IU/EC73 soil versus IU soil): −28%
activity MATCH IU/EC73 soil (visual, scale 0-100%) (MATCH [2]; IU/EC73 soil): 0%
activity ALOMY resistant (visual, scale 0-100%) (ALOMY; resistant biotype): 68%
activity ALOMY sensitive (visual, scale 0-100%) (ALOMY; sensitive biotype): 80%
activity APESV 5 mm (visual, scale 0-100%) (APESV): 67%
